Measured values published in the OligoGym collection.
Values joined by “and” are separate entries in the source; they are usually repeats but may differ in a detail not shown here. Identical values can stand only once. After the bases stand the sugars from the 5' end (letter, count) and the backbone: PS all phosphorothioate, else s phosphorothioate and o phosphodiester by linkage. Methylation of C is not given here. e = 2'-O-(2-methoxyethyl) (MOE); k = constrained ethyl (cEt); d = 2'-deoxy (DNA)

Target: IRF4
Details: ASO

Sequence	target mRNA inhibition (SK-MEL-28, 4 µM) [%]	target mRNA inhibition (MM.1R, 1 µM)	further results
ATAGTGCAATGAAATG (sugars k3 d10 k3, PS)	36	–	–
GAAGTTTACACTGGAT (sugars kkdddddddddkdkdk, PS)	–	23%	–
ACCAATGGCAGCACCG (sugars k3 d10 k3, PS)	61	–	–
TCTAAACCAGCATATT (sugars k3 d10 k3, PS)	33	–	–
AATACCTACCTGCCCT (sugars k3 d10 k3, PS)	15	–	–
CACCTGATCTTGCTGC (sugars k3 d10 k3, PS)	–	12%	–
AAGCTTGATAAAGGCT (sugars k2 d9 e3 k2, PS)	–	53%	–
AAGGGAACAGATAGTT (sugars k3 d10 k3, PS)	20	–	–
ACTGTTACCGATGCTT (sugars kkddddddddddkeke, PS)	–	30% and 48%	–
ACACTTTTAGAGAGGA (sugars kkdddddddddekeke, PS)	–	41%	–
CACCACCTCGAGGCCA (sugars k3 d10 k3, PS)	24	–	–
TAATCCACAATCAGCA (sugars k3 d10 k3, PS)	–	-27%	–
CCGGAGTCAGTGCTGG (sugars k3 d10 k3, PS)	-7	–	–
CAAAGCGCACCGCAGG (sugars k3 d10 k3, PS)	–	-4%	–
AACAAATTAAAGAGCG (sugars k3 d10 k3, PS)	23	–	–
GGGTGCTCTTACAGCC (sugars k3 d10 k3, PS)	–	-2%	–
AGTGAGAAAACCCCCC (sugars k3 d10 k3, PS)	–	8%	–
CGACAGCTAAAGAACA (sugars k3 d10 k3, PS)	37	–	–
GCAGTGATGTCAGGTT (sugars kkkdddddddddkeke, PS)	–	56%	–
TCAGTTTGTGAAGCAT (sugars kkdddddddddkekek, PS)	–	58%	target mRNA inhibition (MM.1R, 0.074 µM): 9%; target mRNA inhibition (MM.1R, 0.222 µM): 27%; target mRNA inhibition (MM.1R, 0.666 µM): 46%; target mRNA inhibition (MM.1R, 2 µM): 73%
ATCCGAAAAGACTGGA (sugars k3 d10 k3, PS)	–	-20%	–
GACCAGAACTAATGTC (sugars k3 d10 k3, PS)	–	-27%	–
CTCCTTTTTTGGCTCC (sugars k3 d10 k3, PS)	19	–	–
CTAGTCGCGCAAGTCT (sugars k3 d10 k3, PS)	–	-4%	–
AAGCATTTTATCATCC (sugars kkkddddddddkekek, PS)	–	10%	–

Sequence	target mRNA inhibition (SK-MEL-28, 4 µM) [%]	target mRNA inhibition (MM.1R, 1 µM)	further results
CATCCTGCTTCCAGTG (sugars k3 d10 k3, PS)	30	–	–
ACACAGGCTAATCAGA (sugars k3 d10 k3, PS)	7	–	–
CAATTGAAATGGAGCA (sugars k3 d10 k3, PS)	26	–	–
GACAGTGACTTGCATC (sugars kkddddddddddkeke, PS)	–	25%	–
ACATTAAAGGGTAAGC (sugars k3 d10 k3, PS)	–	-23%	–
GTAGTATGAGAAACGG (sugars kkdddddddddekeke, PS)	–	35%	–
CTGAGAGCCGAGGCCT (sugars k3 d10 k3, PS)	-17	–	–
AAGCATAAAAGGTTCC (sugars k3 d10 k3, PS)	28	–	–
GGCCTGAAGCTTAGTT (sugars k3 d10 k3, PS)	–	-5% and 6%	–
GACAGTGACTTGCATC (sugars kdddddddddkekeke, PS)	–	0%	–
AAGCACTGGCATCGAG (sugars k3 d10 k3, PS)	27	–	–
TACACCTACACAGGCT (sugars k3 d10 k3, PS)	19	–	–
CTCAATAATCTCCCAG (sugars k3 d10 k3, PS)	53	–	–
GCGCAAGTCTACAGCC (sugars k3 d10 k3, PS)	-20	–	–
CGCACTCCGGGCACCC (sugars k3 d10 k3, PS)	–	11%	–
AAGCATAGAGTCACCT (sugars k3 d10 k3, PS)	36	–	–
AGTCTAGCTGGGTTTT (sugars k3 d10 k3, PS)	63	–	–
ATCCACACCAATGGCA (sugars k3 d10 k3, PS)	34	–	–
CCGAGATATAAATAGC (sugars k3 d10 k3, PS)	61	25%	target mRNA inhibition (MM.1R, 0.0625 µM): 3%; target mRNA inhibition (MM.1R, 0.074 µM): 7%; target mRNA inhibition (MM.1R, 0.222 µM): 9%; target mRNA inhibition (MM.1R, 0.25 µM): 12%; target mRNA inhibition (MM.1R, 0.666 µM): 22%; target mRNA inhibition (MM.1R, 2 µM): 38%; target mRNA inhibition (MM.1R, 4 µM): 52%
CGTTCTCCCACACCAG (sugars k3 d10 k3, PS)	48	–	–
TCAGATTTACACCGTT (sugars k3 d10 k3, PS)	–	14%	–
TTTTAGTGTTACTTGC (sugars k3 d10 k3, PS)	32	–	–
CCAGAAGTACGAGCAC (sugars k3 d10 k3, PS)	–	-3%	–
CCTCAGTTTGTGAAGC (sugars kkkddddddddkekek, PS)	–	3%	–
AGCTTGATAAAGGCTG (sugars kkkddddddddkekek, PS)	–	-8%	–

Sequence	target mRNA inhibition (SK-MEL-28, 4 µM) [%]	target mRNA inhibition (MM.1R, 1 µM)	further results
ATTACTGCTTGAGGTT (sugars k3 d10 k3, PS)	62	–	–
CTGCAGTTCACGAAAC (sugars k3 d10 k3, PS)	38	–	–
TCCTAACCCTACCCTT (sugars k3 d10 k3, PS)	30	–	–
CTGTTAAGTCCCATCT (sugars k3 d10 k3, PS)	54	–	–
ACTGCTGTGTGTCAAA (sugars k4 d8 k4, PS)	19	–	–
GTGATGTCAGGTTTTC (sugars kkdddddddddkdkdk, PS)	–	27%	–
CGGCAGACGGGAGCCC (sugars k3 d10 k3, PS)	12	–	–
CTGGCACCAAAAGTAC (sugars k3 d10 k3, PS)	18	–	–
CAAGTGTCTAAAGTCC (sugars kkdddddddddkekek, PS)	–	15% and 6%	–
AGTGATGTCAGGTTTT (sugars e1 k2 d9 k2 e2, PS)	–	39%	–
CCCATGAACACCATGC (sugars k3 d10 k3, PS)	32	–	–
AACCGCTGGCAGGTGG (sugars k3 d10 k3, PS)	40	–	–
TTGCCTTCGCTCACTC (sugars k3 d10 k3, PS)	22	–	–
CGTGTGCTTGCCAAGC (sugars k3 d10 k3, PS)	–	67% and 66% and 56%	target mRNA inhibition (MM.1R, 0.0625 µM): -3%; target mRNA inhibition (MM.1R, 0.25 µM): 31%; target mRNA inhibition (MM.1R, 4 µM): 81%
TGCTTTGCAGCATTGG (sugars k3 d10 k3, PS)	–	30%	–
CTCCACAGCAAGGCCT (sugars k3 d10 k3, PS)	51	–	–
ATGATAAGGCACTACT (sugars k3 d10 k3, PS)	13	–	–
AGTGATGTCAGGTTTT (sugars kkkdddddddddkeke, PS)	–	59%	target mRNA inhibition (MM.1R, 0.074 µM): 15%; target mRNA inhibition (MM.1R, 0.222 µM): 36%; target mRNA inhibition (MM.1R, 0.666 µM): 55%; target mRNA inhibition (MM.1R, 2 µM): 79%
GTCACCTGGCAACCAT (sugars k4 d8 k4, PS)	41	–	–
GATTTCCGGGTGTGGC (sugars k3 d10 k3, PS)	–	–	target mRNA inhibition (MM.1R, 0.0625 µM): 14%; target mRNA inhibition (MM.1R, 0.25 µM): -11%; target mRNA inhibition (MM.1R, 4 µM): 33%
CGACAGCATAGCATTA (sugars k3 d10 k3, PS)	75	–	–
AGCCAGCCAGAGGTTC (sugars k3 d10 k3, PS)	30	–	–
GCAATCTTAACCTGGA (sugars k3 d10 k3, PS)	–	37% and 38%	target mRNA inhibition (MM.1R, 0.0625 µM): -3% and 3%; target mRNA inhibition (MM.1R, 0.25 µM): 8%; target mRNA inhibition (MM.1R, 4 µM): 70% and 71%
TTACTAGGTGCTTGTT (sugars k3 d10 k3, PS)	50	–	–
TGCCAGTTCCTTGTGA (sugars k3 d10 k3, PS)	–	-2%	–

Sequence	target mRNA inhibition (SK-MEL-28, 4 µM) [%]	target mRNA inhibition (MM.1R, 1 µM)	further results
AGATAACATGAGAGTG (sugars k3 d10 k3, PS)	41	–	–
GTTCACAACAGAGCTG (sugars k3 d10 k3, PS)	–	-16%	–
TGGTTGGCTGGTCTTT (sugars kkddddddddddkeke, PS)	–	80% and 68%	target mRNA inhibition (MM.1R, 0.0625 µM): 41%; target mRNA inhibition (MM.1R, 0.25 µM): 56%; target mRNA inhibition (MM.1R, 4 µM): 85%
GCATTTTATCATCCGA (sugars kkkddddddddkekek, PS)	–	45%	–
TGGGATTATATACTGG (sugars kddddddddddkekek, PS)	–	43%	–
CACGGACGAACGCGCA (sugars k3 d10 k3, PS)	-2	–	–
CCCCTCTCCAGGTGGC (sugars k3 d10 k3, PS)	13	–	–
GAGCACCAGCCATCGG (sugars k3 d10 k3, PS)	23	–	–
GCACATCAATGTTTTA (sugars k3 d10 k3, PS)	67	–	–
TAAAAGAGGTGCTAGG (sugars k3 d10 k3, PS)	27	–	–
ACCCACATCACTGTCT (sugars k3 d10 k3, PS)	15	–	–
TAAGAGGCGACTGCTG (sugars k3 d10 k3, PS)	-45	–	–
ATCTTAACCTGGAGAA (sugars k3 d10 k3, PS)	28	–	–
GGACCACATCTAATCC (sugars k3 d10 k3, PS)	–	-12%	–
CAAAGCAAGTGTCTAA (sugars k3 d10 k3, PS)	23	–	–
CCTGAAGCTTAGTTAT (sugars k3 d10 k3, PS)	35	–	–
AAGCAGTGATGTCAGG (sugars k3 d10 k3, PS)	–	66% and 65%	target mRNA inhibition (MM.1R, 0.0625 µM): 8%; target mRNA inhibition (MM.1R, 0.25 µM): 25%; target mRNA inhibition (MM.1R, 4 µM): 75%
TCTACAAGGTCTGAGT (sugars k3 d10 k3, PS)	57	–	–
GCATGGATCCTGAGAG (sugars k3 d10 k3, PS)	–	11%	–
TAGTTAAGTACTTGGA (sugars k3 d10 k3, PS)	56	–	–
CAGTGACTTGCATCCA (sugars k2 d9 e3 k2, PS)	–	28%	–
AGTGACTTGCATCCAT (sugars k3 d10 k3, PS)	–	67% and 58%	target mRNA inhibition (MM.1R, 0.0625 µM): 10%; target mRNA inhibition (MM.1R, 0.25 µM): 28%; target mRNA inhibition (MM.1R, 4 µM): 78%
